How the values were obtained:
[1] = tested on: InsP3 signalling in primary chick cortical neurons; experiment: Phosphoinositide hydrolysis assay (InsP3 signalling) in cultured primary cortical neurons; assay type: cell-based; details: for Ins-P-n, modulator Lsm:Sph: 20 μM Lysosphingomyelin + 20 μM Sphingosine; for Ins-P-n, modulator Psy:Sph: 20 μM Psychosine + 20 μM Sphingosine; for fold induction at 100 µM: Gallus gallus, Cortical neurone, 20 min, read-out: Ins-P-n (agonist alone); for physiological effect in this system: amino group amidated, non-ionic
Procedure: Primary cultures of neurons were prepared from the telencephalon of white Leghorn chick embryos on the eighth day of their development (Rosenberg et al., J.Biol. Chem. 267:10601-10612, 1992). The neurons were seeded in 24-well plastic tissue culture plates that had been coated with L-polylysine. The density of the neurons was 10^5 cells per well, and they were cultured in Dulbecco's modified Eagle's medium/Ham's high glucose F-12 medium (1:1, vol:vol) containing 500 ng/L sodium selenite, 500 μg/L transferrin, and 165 pmole/L EGF. The cultures were maintained at 37° C. under 5% CO2 in air for 4 days, by which time the cells had differentiated into neurite-bearing cortical granulocytic neurons. These cultures of mature embryonic neurons were used for phosphoinositide hydrolysis assays (as described in Example 2).
Receptor-stimulated and basal unstimulated hydrolysis of phosphoinositides was measured by the following procedure. In order to label the cellular phosphoinositides metabolically, the primary cultures of chick cortical neurons (described in Example 1) were incubated overnight with 0.5 ml Dulbecco's modified Eagle's medium containing 1 μCi [^3 H]myo-inositol per well. The cells were then washed twice with 1 ml Dulbecco's phosphate-buffered saline (PBS) and 0.5 ml of PBS containing 4.5 g/L glucose was added. Sphingosine, psychosine, lysosulphatide, or lysosphingomyelin, prepared as the hydrochloride salt dissolved in water, were then added to produce the desired extracellular concentration in specific wells, […] The cells were then washed twice with 1 ml PBS, and pre-incubated for 15 minutes at 37° C. with 0.5 ml PBS containing 10 mM LiCl and the compound to be tested was added. […] The tubes were vortexed thoroughly, then centrifuged at 500×g for 5 minutes to separate the aqueous and chloroform phases. For each sample, a 1.5-ml aliquot of the upper (aqueous) phase was applied to a small column containing BioRad AG1X8 resin (formate form). Free [^3 H]inositol and [^3 H]glycerophosphoinositol were washed through the column with 5 ml of a solution containing 5 mM sodium borate and 60 mM sodium formate. The total phosphorylated [^3 H] inositol fraction was eluted from the column for radiometric scintillation spectrometry analysis with 3 ml 1.0 M ammonium formate/0.1 M formic acid;
In addition, a 0.5 ml aliquot of the lower (chloroform) phase of each sample was analyzed radiometrically by scintillation spectrometry in order to determine the quantity of lipid-bound [^3 H]myo-inositol. Estimation of phosphoinositide hydrolysis by phospholipase C is based upon the quantity of [^3 H]inositol phosphates produced, and is expressed as the percentage of the latter relative to total free and componential [^3 H]inositol (dpm ammonium formate+dpm chloroform fractions).
Cultured primary chick cortical neurons that were prelabeled with [^3 H]myo-inositol were examined for enhanced InsP3 signalling in response to various agonists including glutamate, aspartate, and the metabotropic […] receptor agonists ibotenate and quisqualate.

[2] = tested on: calcium ion signalling in cortical neurons; experiment: Metabotropic receptor function: calcium ion signalling (fura 2) in intact cortical neurons; assay type: cell-based, chick; details: 10 μM agonist, 30 minutes at 37° C., fura 2 fluorescence ratio
Procedure: Metabotropic receptor function was examined in intact neurons by assaying lysosphingolipid modulation of calcium ion signalling. Approximately 1×10^6 cortical neurons were cultured on rectangular L-polylysine-coated coverslips and loaded with lysocerebroside or lysosphingomyelin to a level of 150±20 pmoles per mg protein. The neurons were returned to complete Ham's high glucose medium/DMEM (1:1, vol:vol) and infiltrated with 5 μM fura 2/AM (Molecular Probes, Eugene, Oreg.). Fura 2 is a calcium chelator whose fluorescence absorbance shifts to shorter wavelength upon calcium ion binding is measurable in intact cells. A change in intraneuronal calcium ion concentration was monitored as a change in the fluorescence spectrum.
The neurons were exposed to 10 μM glutamate agonist (for example, ibotenate) for 30 minutes at 37° C. The coverslips were then transferred to quartz cuvettes in medium containing 250 μM sulfinpyrazone to prevent fura 2/AM diffusion. Fluorescence ratios were recorded in a Perkin-Elmer LS-5 Fluorescence Spectrometer thermostatted at 37° C. at excitation wavelengths of 340 and 380 nm, a nd emission measurement at 500 nm. Calcium ion signalling in agonist-stimulated neurons was 3.0±0.2 arbitrary units for ibotenate-exposed neurons.

rat C6 glioma cells = details: cited from earlier work
[3] = Membrane insertion potential
[4] = then 100 μM agonist 20 min, normalized to control = 1.00

Molecule | Ins-P-n, modulator Lsm:Sph [1, 4] | Ins-P-n, modulator Psy:Sph [1, 4] | fold induction at 100 µM [1] | other results
N[C@@H](CC(=O)O)C(=O)O [Aspartate, aspartate] | 2.00 ± 0.05 | 2.65 ± 0.50 | 2.7 ± 0.06 | Ins-P-n, modulator Lsm ([1]; neurons preincubated with 20 μM Lysosphingomyelin 30 min, washed, then 100 μM agonist 20 min, normalized to control = 1.00): 1.00 ± 0.06; Ins-P-n, modulator Psy ([1]; neurons preincubated with 20 μM Psychosine 30 min, washed, then 100 μM agonist 20 min, normalized to control = 1.00): 1.00 ± 0.06
N[C@@H](CCC(=O)O)C(=O)O [Glutamate, glutamate] | 3.00 ± 0.10 | 3.00 ± 0.35 | 3.3 ± 0.05 | –
NC(C(=O)O)c1cc(O)no1 (stereo not drawn) [Ibotenate, ibotenate] | 2.10 ± 0.10 | 3.10 ± 0.35 | 3 ± 0.1 | calcium ion signalling in agonist-stimulated neurons [2]: 3.0±0.2 arbitrary units
CCCCCCCCCCCCC/C=C/[C@@H](O)[C@@H](N)CO[C@@H]1O[C@H](CO)[C@H](O)[C@H](OS(=O)(=O)O)[C@H]1O [Lysosulphatide] | – | – | – | inhibitory effect on InsP3 enhancement caused by sphingosine or metabotropic glutamate receptor agonists ([1]; cortical neurons): without inhibitory effect
CCCCCCCCCCCCC/C=C/[C@@H](O)[C@H](CO)NC(C)=O [N-acetyl sphingosine] | – | – | – | physiological effect in this system [1]: little or no physiological effect
CN(C)CCCN1c2ccccc2Sc2ccc(Cl)cc21 [chlorpromazine, 10-(3-dimethylaminopropyl)-2-chlorphenothiazine] | – | – | – | level of InsP3 (rat C6 glioma cells): raises the level of InsP3
CCCCCCCCCCCCCCC[C@@H](O)[C@@H](N)CO [sphinganine] | – | – | – | membrane insertion potential relative to sphingosine [3]: less than one third the membrane insertion potential of sphingosine
CN[C@@H]1C[C@H]2O[C@@](C)([C@@H]1OC)n1c3ccccc3c3c4c(c5c6ccccc6n2c5c31)C(=O)NC4 [staurosporine] | – | – | – | influence on the effects of sphingosine, lysocerebroside, or lysosphingomyelin on InsP3 production ([1]; brain neurons responsive to excitatory amino acids): does not influence
ceramide | – | – | – | physiological effect in this system [1]: little or no physiological effect

Source: patent publication US6083920A, “Compositions for modulating intracellular inositol trisphosphate concentration” (priority 1996, dated 2000)
